This test addresses Voltage-dependent L-type calcium channel subunit alpha-1C (Cavia porcellus, UniProt O35505). Briefly: Antagonist activity at Cavia porcellus albino (guinea pig) calcium channel assessed as inhibition of KCl-induced ileal longitudinal smooth muscle contraction.

IC50 data for 28 compounds are collected here from ChEMBL document CHEMBL3045722, “Synthesis, calcium-channel blocking activity, and conformational analysis of some novel 1,4-dihydropyridines: application of PM3 and DFT computational methods” (Med Chem Res, 2012).

Each structure is given as a SMILES string. pIC50: −log10 of the molar value.

By pIC50 is commonly meant −log10 of the IC50, conventionally taken in molar units.

Voltage-dependent L-type calcium channel subunit alpha-1C, sequence (O35505 whole entry): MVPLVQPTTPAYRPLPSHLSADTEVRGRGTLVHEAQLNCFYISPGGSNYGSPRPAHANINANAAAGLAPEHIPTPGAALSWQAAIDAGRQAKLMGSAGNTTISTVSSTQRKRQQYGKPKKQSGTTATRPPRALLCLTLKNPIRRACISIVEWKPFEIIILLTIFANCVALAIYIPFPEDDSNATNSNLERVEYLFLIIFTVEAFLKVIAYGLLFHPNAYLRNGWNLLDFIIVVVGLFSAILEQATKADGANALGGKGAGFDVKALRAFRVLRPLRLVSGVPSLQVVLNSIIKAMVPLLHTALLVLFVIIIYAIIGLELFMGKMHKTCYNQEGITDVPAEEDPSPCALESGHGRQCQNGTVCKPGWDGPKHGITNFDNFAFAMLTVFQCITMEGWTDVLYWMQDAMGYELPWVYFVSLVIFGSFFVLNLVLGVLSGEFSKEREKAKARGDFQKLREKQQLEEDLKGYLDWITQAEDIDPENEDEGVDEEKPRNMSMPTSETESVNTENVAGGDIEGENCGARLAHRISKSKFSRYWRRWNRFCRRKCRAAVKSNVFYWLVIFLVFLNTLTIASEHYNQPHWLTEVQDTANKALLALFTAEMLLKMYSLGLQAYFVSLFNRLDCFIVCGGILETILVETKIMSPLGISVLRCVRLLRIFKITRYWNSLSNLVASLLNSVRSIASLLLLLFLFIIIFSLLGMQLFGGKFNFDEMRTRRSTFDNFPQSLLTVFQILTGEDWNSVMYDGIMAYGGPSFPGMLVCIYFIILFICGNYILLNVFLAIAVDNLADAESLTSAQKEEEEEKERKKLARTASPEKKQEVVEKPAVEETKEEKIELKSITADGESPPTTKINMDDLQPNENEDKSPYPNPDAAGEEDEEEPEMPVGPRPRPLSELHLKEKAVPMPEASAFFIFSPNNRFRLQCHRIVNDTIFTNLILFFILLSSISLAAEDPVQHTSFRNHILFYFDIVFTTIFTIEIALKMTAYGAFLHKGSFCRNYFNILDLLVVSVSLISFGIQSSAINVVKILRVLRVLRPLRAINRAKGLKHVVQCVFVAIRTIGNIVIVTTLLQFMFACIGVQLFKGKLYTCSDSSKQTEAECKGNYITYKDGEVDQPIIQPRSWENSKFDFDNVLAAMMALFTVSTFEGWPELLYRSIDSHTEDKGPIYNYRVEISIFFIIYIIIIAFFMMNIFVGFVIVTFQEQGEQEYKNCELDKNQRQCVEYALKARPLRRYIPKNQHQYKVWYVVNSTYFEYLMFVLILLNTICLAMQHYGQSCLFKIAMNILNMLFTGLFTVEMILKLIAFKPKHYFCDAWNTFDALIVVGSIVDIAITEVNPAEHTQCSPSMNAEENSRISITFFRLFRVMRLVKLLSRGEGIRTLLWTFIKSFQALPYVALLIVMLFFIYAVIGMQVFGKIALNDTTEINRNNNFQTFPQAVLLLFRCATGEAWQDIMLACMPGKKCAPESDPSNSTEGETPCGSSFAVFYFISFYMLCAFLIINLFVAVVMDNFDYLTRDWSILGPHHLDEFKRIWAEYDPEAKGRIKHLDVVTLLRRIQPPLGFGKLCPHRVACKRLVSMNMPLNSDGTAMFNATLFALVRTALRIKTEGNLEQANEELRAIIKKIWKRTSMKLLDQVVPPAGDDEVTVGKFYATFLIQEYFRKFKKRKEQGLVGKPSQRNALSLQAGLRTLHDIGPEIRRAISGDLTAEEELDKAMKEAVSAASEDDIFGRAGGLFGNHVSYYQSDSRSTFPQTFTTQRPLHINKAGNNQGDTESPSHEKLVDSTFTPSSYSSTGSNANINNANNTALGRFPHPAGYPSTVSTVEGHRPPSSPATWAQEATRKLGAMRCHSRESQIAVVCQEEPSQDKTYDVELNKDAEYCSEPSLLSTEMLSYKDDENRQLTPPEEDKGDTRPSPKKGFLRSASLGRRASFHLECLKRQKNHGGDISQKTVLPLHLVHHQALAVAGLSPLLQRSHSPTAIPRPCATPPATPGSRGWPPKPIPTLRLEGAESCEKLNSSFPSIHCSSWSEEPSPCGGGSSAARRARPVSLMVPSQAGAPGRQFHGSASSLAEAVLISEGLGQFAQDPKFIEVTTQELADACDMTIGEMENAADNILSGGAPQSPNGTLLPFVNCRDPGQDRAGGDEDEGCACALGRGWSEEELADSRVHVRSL

On to `COC(=O)C1=C(C)NC(C)=C(C(=O)OCCCc2ccccc2)C1c1cnc(SC)n1Nc1ccccc1` (stereo not drawn), for which the negative logarithm of the IC50 (pIC50) is 8.52.
Regarding `CCOC(=O)C1=C(C)NC(C)=C(C(=O)OC(C)C)C1c1cnc(SC)n1Nc1ccccc1` (stereo not drawn), the pIC50 was 8.49.
The result for `CCOC(=O)C1=C(C)NC(C)=C(C(=O)OCCOC)C1c1cnc(SC)n1Nc1ccccc1` (stereo not drawn) reads 8.54; that for `CCOC(=O)C1=C(C)NC(C)=C(C(=O)OCc2ccccc2)C1c1cnc(SC)n1Nc1ccccc1` (stereo not drawn), 8.73.
The result for `CCOC(=O)C1=C(C)NC(C)=C(C(=O)OCCCc2ccccc2)C1c1cnc(SC)n1Nc1ccccc1` (stereo not drawn) reads 8.60; that for `CSc1ncc(C2C(C(=O)OC(C)C)=C(C)NC(C)=C2C(=O)OC(C)(C)C)n1Nc1ccccc1` (stereo not drawn), 7.17.
Take `COCCOC(=O)C1=C(C)NC(C)=C(C(=O)OC(C)C)C1c1cnc(SC)n1Nc1ccccc1` (stereo not drawn): the pIC50 is 7.27.
With `CSc1ncc(C2C(C(=O)OCc3ccccc3)=C(C)NC(C)=C2C(=O)OC(C)C)n1Nc1ccccc1` (stereo not drawn), the pIC50 is 8.14.
In the case of `CSc1ncc(C2C(C(=O)OCCCc3ccccc3)=C(C)NC(C)=C2C(=O)OC(C)C)n1Nc1ccccc1` (stereo not drawn), the pIC50 was 8.21.
On to `CSc1ncc(C2C(C(=O)OCC3CCCCC3)=C(C)NC(C)=C2C(=O)OC(C)C)n1Nc1ccccc1` (stereo not drawn), for which the pIC50 was 7.25.
Consider `CSc1ncc(C2C(C(=O)OCC(C)C)=C(C)NC(C)=C2C(=O)OCC(C)C)n1Nc1ccccc1`, for which the pIC50 was 8.17.
With `COCCOC(=O)C1=C(C)NC(C)=C(C(=O)OCCOC)C1c1cnc(SC)n1Nc1ccccc1`, the negative logarithm of the IC50 (pIC50) was 7.75.
For the compound `CSc1ncc(C2C(C(=O)OC3CCCC3)=C(C)NC(C)=C2C(=O)OC2CCCC2)n1Nc1ccccc1`, the pIC50 is 6.37.
As for `CSc1ncc(C2C(C(=O)OC3CCCCC3)=C(C)NC(C)=C2C(=O)OC2CCCCC2)n1Nc1ccccc1`, the pIC50 is 6.33.
Consider `CSc1ncc(C2C(C(=O)OCC3CCCCC3)=C(C)NC(C)=C2C(=O)OCC2CCCCC2)n1Nc1ccccc1`, for which the pIC50 was 6.21.
As to `COC(=O)C1=C(C)NC(C)=C(C(=O)OC)C1c1cnc(SC)n1Nc1ccccc1`, the pIC50 was 8.45.
For `CCOC(=O)C1=C(C)NC(C)=C(C(=O)OCC)C1c1cnc(SC)n1Nc1ccccc1`, the pIC50 is 8.77.
`CCCOC(=O)C1=C(C)NC(C)=C(C(=O)OCCC)C1c1cnc(SC)n1Nc1ccccc1`: the pIC50 was 8.64.
The result for `CSc1ncc(C2C(C(=O)OC(C)C)=C(C)NC(C)=C2C(=O)OC(C)C)n1Nc1ccccc1` reads 8.67; that for `CSc1ncc(C2C(C(=O)OC(C)(C)C)=C(C)NC(C)=C2C(=O)OC(C)(C)C)n1Nc1ccccc1`, 6.92.
The result for `CSc1ncc(C2C(C(=O)OCc3ccccc3)=C(C)NC(C)=C2C(=O)OCc2ccccc2)n1Nc1ccccc1` reads 8.83; that for `CSc1ncc(C2C(C(=O)OCCc3ccccc3)=C(C)NC(C)=C2C(=O)OCCc2ccccc2)n1Nc1ccccc1`, 8.55.
In the case of `CSc1ncc(C2C(C(=O)OCCCc3ccccc3)=C(C)NC(C)=C2C(=O)OCCCc2ccccc2)n1Nc1ccccc1`, the pIC50 is 8.50.
As to `CCOC(=O)C1=C(C)NC(C)=C(C(=O)OC)C1c1cnc(SC)n1Nc1ccccc1` (stereo not drawn), the negative-log IC50 (pIC50) is 8.78.
As to `CCCOC(=O)C1=C(C)NC(C)=C(C(=O)OC)C1c1cnc(SC)n1Nc1ccccc1` (stereo not drawn), the negative-log IC50 (pIC50) is 8.62.
For `COC(=O)C1=C(C)NC(C)=C(C(=O)OC(C)C)C1c1cnc(SC)n1Nc1ccccc1` (stereo not drawn), the pIC50 was 8.20.
As to `COCCOC(=O)C1=C(C)NC(C)=C(C(=O)OC)C1c1cnc(SC)n1Nc1ccccc1` (stereo not drawn), the pIC50 is 8.02.
To `COC(=O)C1=C(C)NC(C)=C(C(=O)OCc2ccccc2)C1c1cnc(SC)n1Nc1ccccc1` (stereo not drawn) belongs 8.66.
